The values below come from patent publication US11186577B2, “Vasopressin receptor antagonists and products and methods related thereto” (BlackThorn Therapeutics, Inc., priority 2017, dated 2021).

Data set [1] deals with human Arginine Vasopressin Receptor 1a (AVPR1a) (Homo sapiens (Human), UniProt P37288). Kind of data set: Vasopressin V1A receptor antagonist assay (AVP-evoked calcium, FLIPR, CHO-AVPR1a cells). The data set is classed as cell-based. Conditions: read-out: V1a IC50. The essentials: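 CHO cells expressing human AVPR1a, Calcium-6 dye loaded 60-90 min, preincubated with compound 15 min at 37° C., then challenged with AVP at its daily-determined EC80. FLIPR fluorescence; 10-point 1:3 series from 3 μM, duplicates.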

In the next data set the test system is MDR1 (P-gp). Briefly: in vitro. Conditions: dog, MDCK-MDR1.
For data set [2], the target named is human Arginine Vasopressin Receptor V2 (AVPR2) (Homo sapiens (Human), UniProt P30518). Briefly: Vasopressin V2 receptor antagonist assay (cAMP TR-FRET, 1321N1 cells). It is filed as cell-based. The procedure: The purpose of the assay was to determine the inhibitory effect of synthesized compounds on the Vasopressin receptor 2. […] Arginine Vasopressin (AVP) evokes an increase in intracellular cAMP in these cells which is measured in a TR-FRET assay using a Europium cAMP tracer and ULight labelled antibody reagents contained in a LANCE Ultra cAMP kit (Perkin Elmer #TRF0263). […] Test compounds were assessed for their ability to affect the magnitude of the response to AVP, with antagonists showing a concentration-dependent decrease in the AVP-mediated reduction in TR-FRET signal.
cAMPZen V2 assay ready cells were thawed at 37° C. and resuspended directly from frozen in 9 ml growth medium consisting of DMEM supplemented with 10% v/v fetal bovine serum, 1× non-essential amino acids, and 1 mM sodium pyruvate. Cells were spun at 1000 rpm for 3 minutes and the supernatant was carefully removed and discarded. The pellet was resuspended in 5 ml stimulation buffer and the cell density determined using the Vi-Cell automated cell counter. The cell suspension was diluted to a 0.2×10^6/ml suspension ready for plating. […] Stimulation buffer consisted of HBSS (+Ca/+Mg) supplemented with 5 mM HEPES, 0.1% BSA stabiliser and 0.5 mM IBMX.
At the start of each assay day the potency of AVP was assessed and an EC80 concentration determined for subsequent compound profiling. Assays were performed by first an addition of 2.5 μl of control or test compound at 4× final concentration in stimulation buffer followed by 2.5 μl of AVP at 4× final concentration in stimulation buffer. After a 1 hour reaction, detection reagents were added by first an addition of 5 μl EU-cAMP tracer, followed by 5 μl ULight-anti-cAMP both diluted as per the manufacturer's instructions. […] For compound profiling, test compounds were dispensed by the Labcyte Echo (10-point curve, 1:3 dilutions) in a target 0.1 μl volume then diluted 750-fold in stimulation buffer containing 3% DMSO prior to addition to the cells. At the end of the incubation period, 2.5 μl of AVP in stimulation buffer was added at the previously determined EC80 concentration.

The target in data set [3] is human Oxytocin Receptor (hOTR) (Homo sapiens (Human), UniProt P30559). Briefly: Oxytocin receptor antagonist assay (oxytocin-evoked calcium, FLIPR, CHEM-1-hOTR cells). The data set is classed as cell-based. Conditions: read-out: OT IC50. The essentials: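 Antagonist mode in CHEM-1-hOTR cells loaded with Calcium-6 dye; compounds (10-point, 1:3 series) preincubated 15 min at 37 °C, then oxytocin added at daily-determined EC80 in HBSS/20 mM HEPES with 0.1% BSA. Fluorescence (ex 470-495, em 515-575 nm) followed 3 min on FLIPR^TETRA; concentration-dependent reduction of oxytocin response measured.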

For another data set, the system named is MDR1 (P-glycoprotein). Kind of data set: MDR1-MDCK effective efflux assay (Transwell, 10 μM, 1 hour), MDR1-MDCK cells. Conditions: dog, MDCK-MDR1, pH 7.4, Papp AB MDR1. It is filed as in vitro ADME. Here is the method:
(§1) The MDR1-MDCK effective efflux assay was performed as described in the BioFocus Standard Operating Procedure, ADME-SOP-56. Both wild-type (WT) and MDR1-MDCK cells (Solvo Biotechnology) were seeded onto 24-well Transwell plates at 2.35×10^5 cells per well and used in confluent monolayers after a 3 day culture at 37° C. under 5% CO2. For both cell types, test and control compounds (propranolol, vinblastine) were added (10 μM, 0.1% DMSO final, n=2) to donor compartments of the Transwell plate assembly in assay buffer (Hanks balanced salt solution supplemented with 25 mM HEPES, adjusted to pH 7.4) for both apical to basolateral (A>B) and basolateral to apical (B>A) measurements. Incubations were performed at 37° C., with samples removed from both donor and acceptor chambers at T=0 and 1 hour and compound analysed by mass spectrometry (LC-MS/MS) including an analytical internal standard.
(§2) Where V is the volume of each Transwell compartment (apical 125 basolateral 600 and concentrations are the relative MS responses for compound (normalized to internal standard) in the donor chamber before incubation and acceptor chamber at the end of the incubation. Area=area of cells exposed for drug transfer (0.33 cm2).
(§3) Efflux ratios (Papp B>A/Papp A>B) were calculated for each compound from the mean Papp values in each direction for both wild-type and MDR1-MDCK cells.
(§4) In order to confirm the involvement of MDR1 in any efflux seen, an “effective efflux ratio” (EER) was calculated by comparing compound efflux ratios (ER) in the two cell types, i.e. EER=ER(MDR1−MDCK)/ER(wild-type MDCK)
(§5) This ratio illustrates the effect of the over-expressed MDR1 normalised for the background movement of compound through the wild-type cells.
(§6) Lucifer Yellow (LY) was added to the apical buffer in all wells to assess viability of the cell layer. Compound recovery from the wells was determined from MS responses (normalized to internal standard) in donor and acceptor chambers at the end of incubation compared to response in the donor chamber pre-incubation.

The test system of another data set is MDR1-MDCK cells. The data set is described as above. Conditions: MDCK-MDR1. It is filed as in vitro ADME. Here is the method: as §1, §2, §3, §4, §5, §6
A short description of data set [4]: MDR1-MDCK effective efflux assay (Transwell, 10 μM, 1 hour), wild-type MDCK cells. The data set is classed as in vitro ADME. Conditions: dog, MDCK, pH 7.4, Papp AB WT. Here is the method:
as §1, §2, §3, §4, §5, §6

Data set [5] relates to wild-type (WT) MDCK cells. The description is as above. It is filed as in vitro ADME. Conditions: MDCK. Here is the method:
as §1, §2, §3, §4, §5, §6

Sequence of human Oxytocin Receptor (hOTR) (P30559 whole entry): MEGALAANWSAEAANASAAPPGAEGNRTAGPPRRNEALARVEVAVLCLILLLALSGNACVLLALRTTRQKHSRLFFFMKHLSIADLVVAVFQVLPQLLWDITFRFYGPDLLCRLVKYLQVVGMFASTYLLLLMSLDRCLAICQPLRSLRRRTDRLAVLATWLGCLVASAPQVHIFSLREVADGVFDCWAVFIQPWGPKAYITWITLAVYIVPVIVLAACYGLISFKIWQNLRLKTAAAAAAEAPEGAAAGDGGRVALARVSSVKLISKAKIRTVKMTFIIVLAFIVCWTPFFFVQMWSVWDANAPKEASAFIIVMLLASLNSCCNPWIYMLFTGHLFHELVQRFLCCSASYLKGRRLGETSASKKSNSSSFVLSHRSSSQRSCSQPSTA
Sequence of human Arginine Vasopressin Receptor 1a (AVPR1a) (P37288 whole entry): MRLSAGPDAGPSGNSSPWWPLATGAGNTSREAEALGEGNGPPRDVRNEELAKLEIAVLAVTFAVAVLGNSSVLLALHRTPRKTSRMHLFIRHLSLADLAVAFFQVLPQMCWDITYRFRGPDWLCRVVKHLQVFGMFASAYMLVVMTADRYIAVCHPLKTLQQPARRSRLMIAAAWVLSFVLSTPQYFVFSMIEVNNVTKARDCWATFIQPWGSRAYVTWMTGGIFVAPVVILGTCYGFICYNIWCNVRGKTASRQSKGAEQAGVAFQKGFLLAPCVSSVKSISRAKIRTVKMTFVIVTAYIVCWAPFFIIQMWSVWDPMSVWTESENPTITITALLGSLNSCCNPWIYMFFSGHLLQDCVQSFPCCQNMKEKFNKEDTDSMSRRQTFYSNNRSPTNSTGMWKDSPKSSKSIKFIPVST
Sequence of human Arginine Vasopressin Receptor V2 (AVPR2) (P30518 whole entry): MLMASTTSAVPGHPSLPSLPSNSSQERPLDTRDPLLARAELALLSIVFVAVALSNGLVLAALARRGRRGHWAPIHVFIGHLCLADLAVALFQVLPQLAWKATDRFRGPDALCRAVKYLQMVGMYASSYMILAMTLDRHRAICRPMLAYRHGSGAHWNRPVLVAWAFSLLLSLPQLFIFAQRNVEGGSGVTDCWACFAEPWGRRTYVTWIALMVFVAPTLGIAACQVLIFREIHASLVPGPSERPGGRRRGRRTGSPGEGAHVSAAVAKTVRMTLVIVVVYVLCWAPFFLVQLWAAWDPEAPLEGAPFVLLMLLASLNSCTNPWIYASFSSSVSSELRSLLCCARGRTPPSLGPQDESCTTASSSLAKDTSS

For the compound `Fc1cnc(N2CC3(CC(c4nnc5n4-c4ccc(Cl)cc4CN(C4CC4)C5)C3)C2)nc1` [compound 224], in data set [1], the concentration for half-maximal inhibition (IC50) was less than 100 nM. Also, the apical-to-basolateral permeability (Papp A→B) at 2 h in the data set with MDR1 (P-gp) is greater than 20 ×10⁻⁶ cm/s.
For `CC1(N2Cc3cc(Cl)ccc3-n3c(nnc3C3CC4(C3)CN(c3ccc(F)cn3)C4)C2)CC1` [Compound No. 255, 8-chloro-1-(2-(5-fluoropyridin-2-yl)-2-azaspiro[3.3]heptan-6-yl)-5-(1-methylcyclopropyl)-5,6-dihydro-4H-benzo[f][1,2,4]triazolo[4,3-a][1,4]diazepine], the IC50 in data set [1] is less than 100 nM; in data set [2] it was 100 to 500 nM; in data set [3], greater than 1000 nM. The compound also gave an apparent permeability from apical to basolateral (Papp A→B) at 2 h with MDR1 (P-gp) greater than 20 ×10⁻⁶ cm/s.
For `Cc1nc(N2CC3(CC(c4nnc5n4-c4ccc(Cl)cc4CN(C4CC4)C5)C3)C2)ncc1F` [compound 220], the IC50 in data set [1] is less than 100 nM. This compound also had a Papp A→B at 2 h in the data set with MDR1 (P-gp) greater than 20 ×10⁻⁶ cm/s.
With `Cc1cccc(N2CC3(CC(c4nnc5n4-c4ccc(Cl)cc4CN(C4CC4)C5)C3)C2)n1` [compound 218], the IC50 in data set [1] was less than 100 nM. The compound further showed a Papp A→B at 2 h in the data set with MDR1 (P-gp) greater than 20 ×10⁻⁶ cm/s.
The compound `O=C(C1CC1)N1CC2(CC(c3nnc4n3-c3ccc(Cl)cc3CN(C3CC3)C4)C2)C1` [compound 226, (6-(8-chloro-5-cyclopropyl-5,6-dihydro-4H-benzo[1,2,4]triazolo[4,3-a][1,4]diazepin-1-yl)-2-azaspiro[3.3]heptan-2-yl)(cyclopropyl)methanone] registered a Papp A→B at 2 h with MDR1 (P-gp) of less than 7 ×10⁻⁶ cm/s.
For the compound `Clc1ccc2c(c1)CN(C1CC1)Cc1nnc(C3CC4(C3)CN(c3ncccn3)C4)n1-2` [compound 225], in data set [1], the half-maximal inhibitory concentration (IC50) is less than 100 nM. The same compound came in with a Papp A→B at 2 h with MDR1 (P-gp) greater than 20 ×10⁻⁶ cm/s.
For `CCC(=O)N1Cc2cc(Cl)ccc2-n2c(nnc2C2CC3(C2)CN(c2ncccn2)C3)C1` [compound 107, 1-(8-chloro-1-(2-(pyrimidin-2-yl)-2-azaspiro[3.3]heptan-6-yl)-4H-benzo[f][1,2,4]triazolo[4,3-a][1,4]diazepin-5(6H)-yl)propan-1-one], the concentration for half-maximal inhibition (IC50) in data set [1] was less than 100 nM; in data set [3], greater than 1000 nM. Besides, the apparent permeability from apical to basolateral (Papp A→B) at 1 h, 10 μM in the data set on MDR1 (P-glycoprotein) was less than 7 ×10⁻⁶ cm/s; in data set [4] it was 10 to 20 ×10⁻⁶ cm/s. Also, in the data set on MDR1-MDCK cells, the “MDR1 EER” value is “+”. In addition, the “MDR1 ER” value in the data set on MDR1-MDCK cells is listed as “+”. Further, in data set [5], the “WT ER” value was “+”.
Take `CCC(=O)N1Cc2cc(Cl)ccc2-n2c(nnc2C2CC3(C2)CN(c2cccc(C#N)n2)C3)C1` [compound 125]: the results for the IC50 in data set [1] and in data set [3] were less than 100 nM and greater than 1000 nM, respectively. Besides, the results for the Papp A→B at 1 h, 10 μM (with MDR1 (P-glycoprotein); in data set [4]) were less than 7 ×10⁻⁶ cm/s and greater than 20 ×10⁻⁶ cm/s, respectively. The “MDR1 EER” value with MDR1-MDCK cells is listed as “+”. Moreover, in the data set with MDR1-MDCK cells, the “MDR1 ER” value is “+”. For the same compound, the “WT ER” value in data set [5] is given as “+++”.
As to `Fc1ccc(N2CC3(CC(c4nnc5n4-c4ccc(Cl)cc4CN(C4CC4)C5)C3)C2)nc1` [compound 223], the IC50 in data set [1] was less than 100 nM; in data set [2], less than 100 nM; in data set [3] it was greater than 1000 nM. The Papp A→B at 2 h in the data set with MDR1 (P-gp) is greater than 20 ×10⁻⁶ cm/s.
For the compound `Fc1ccc(N2CC3(CC(c4nnc5n4-c4ccc(Cl)cc4CN(CC(F)(F)F)C5)C3)C2)nc1` [compound 259, 8-chloro-1-(2-(5-fluoropyridin-2-yl)-2-azaspiro[3.3]heptan-6-yl)-5-(2,2,2-trifluoroethyl)-5,6-dihydro-4H-benzo[f][1,2,4]triazolo[4,3-a][1,4]diazepine], the IC50 in data set [1] is less than 100 nM. Besides, the Papp A→B at 2 h in the data set on MDR1 (P-gp) is greater than 20 ×10⁻⁶ cm/s.
With `Cc1nc(N2CC3(CC(c4nnc5n4-c4ccc(Cl)cc4CN(C)C5)C3)C2)ccc1F` [compound 242], the IC50 in data set [1] was less than 100 nM. Moreover, the Papp A→B at 2 h in the data set with MDR1 (P-gp) was greater than 20 ×10⁻⁶ cm/s.
For `CC(=O)N1Cc2cc(Cl)ccc2-n2c(nnc2C2CC3(C2)CN(c2cccc(C#N)n2)C3)C1` [compound 94], the IC50 in data set [1] was less than 100 nM; in data set [3], greater than 1000 nM. The figures for the apparent permeability from apical to basolateral (Papp A→B) at 1 h, 10 μM (with MDR1 (P-glycoprotein); in data set [4]) were less than 7 ×10⁻⁶ cm/s and 10 to 20 ×10⁻⁶ cm/s, respectively. The “MDR1 EER” value in the data set on MDR1-MDCK cells was “+”. Further, the “MDR1 ER” value with MDR1-MDCK cells is listed as “+”. Moreover, the “WT ER” value in data set [5] is given as “+”.
